From ChEMBL document CHEMBL1142046 (Bioorg Med Chem Lett, 2005)
Values after ≈ are worked out from the molar mass of the structure shown.

Columns and labels:
Vero [1] = assay: Minimum cytotoxic compound concentration to induce microscopically detectable alteration of cell morphology, using Vero cell line; format: functional, Chlorocebus sabaeus
MRC5 [2] = assay: Cytotoxic compound concentration to reduce neutral red uptake by 50% using MRC-5 cell line; format: functional, Homo sapiens
HEL = assay: Compound concentration to reduce virus plague formation by 50% tested against human cytomegalovirus laboratory strains Davis using HEL cell line; format: functional, cell-based
Vero [3] = assay: Compound concentration to reduce virus cytopathic effect by 50% tested against herpes simplex virus-1(KOS) using Vero cell line; format: functional, cell-based; details: Chlorocebus sabaeus
Vero [4] = assay: Compound concentration to reduce virus cytopathic effect by 50% tested against herpes simplex […] using Vero cell line; format: functional, cell-based; details: Chlorocebus sabaeus
MRC5 [5] = assay: Compound concentration to reduce virus plague formation by 50% tested against human cytomegalovirus laboratory strains P8 using MRC-5 cell line; format: functional, cell-based
MRC5 [6] = assay: Compound concentration to reduce virus plague formation by 50% tested against human cytomegalovirus laboratory strains Ad169 using MRC-5 cell line; format: functional, cell-based

O=C1NCc2ccccc2OCCC/C=C/c2cncc3ccc1nc23
minimum cytotoxic concentration (MCC) (Vero [1]): 25 µg/mL
CC50% (MRC5 [2]): 0.2 µg/mL (≈ 0.579 µM)
IC50 (HEL): 0.003 µg/mL (≈ 0.00869 µM)
IC50 (Vero [3]): 0.098 µg/mL (≈ 0.284 µM)
IC50 (Vero [4]): 0.004 µg/mL (≈ 0.0116 µM)

Cc1cncc2ccc(C(=O)NCc3ccccc3OC(C)C)nc12
IC50 (MRC5 [5]): 0.13 µg/mL (≈ 0.388 µM)
CC50% (MRC5 [2]): 2.4 µg/mL (≈ 7.16 µM)
IC50 (MRC5 [6]): 0.09 µg/mL (≈ 0.268 µM)

Nc1ccn(C[C@@H](CO)OCP(=O)(O)O)c(=O)n1.O.O [CIDOFOVIR]
minimum cytotoxic concentration (MCC) (Vero [1]): >100 µg/mL
IC50 (Vero [3]): 3.94 µg/mL
IC50 (Vero [4]): 1.28 µg/mL

Nc1nc2c(ncn2COC(CO)CO)c(=O)[nH]1 [GANCICLOVIR]
minimum cytotoxic concentration (MCC) (Vero [1]): >100 µg/mL
IC50 (MRC5 [5]): 1.2 µg/mL (≈ 4.7 µM)
CC50% (MRC5 [2]): >1000 µg/mL
IC50 (HEL): 2.7 µg/mL (≈ 10.6 µM)
IC50 (MRC5 [6]): 2.2 µg/mL (≈ 8.62 µM)
IC50 (Vero [3]): 1.27 µg/mL (≈ 4.99 µM)
IC50 (Vero [4]): 1.22 µg/mL (≈ 4.78 µM)

O=C1NCc2ccccc2OCC/C=C/c2cncc3ccc1nc23
minimum cytotoxic concentration (MCC) (Vero [1]): 6 µg/mL
IC50 (MRC5 [5]): 0.0052 µg/mL (≈ 0.0157 µM)
CC50% (MRC5 [2]): 1.8 µg/mL (≈ 5.43 µM)
IC50 (HEL): < 0.0015 µg/mL
IC50 (MRC5 [6]): 0.0006 µg/mL (≈ 0.00181 µM)
IC50 (Vero [3]): 0.391 µg/mL (≈ 1.18 µM)
IC50 (Vero [4]): 0.009 µg/mL (≈ 0.0272 µM)
